Where two headings read alike, the source gives them in different places.
Columns and labels:
[1] = Table 13, descriptive; no test described; cited from earlier work
Mite [2] = settings: Dose 1 ml/gm/lit.
Alternaria alternata [3] = experiment: In vitro poisoned food technique against fungus (Ex. 20); type: cell-based; settings: poisoned food technique, PDA medium, dose 1 ml/gm/lit., after seven days
Spodoptera litura [4] = settings: Spodoptera litura 3rd instar on cabbage plants, dose 1 ml/gm/lit. spray
Thrips [5] = experiment: whole plant or invertebrate; settings: in Gossypium hirsutum, 48 h
Aphid [6] = settings: Dose 1 ml/gm/lit.
Helicoverpa armigera [7] = settings: Helicoverpa armigera on okra fruits, dose 1 ml/gm/lit., 72 Hrs.
Alternaria alternata [8] = experiment: Alternaria leaf spot/blight on inoculated tomato plants (Ex. 28); type: in vivo; settings: tomato plants, Alternaria alternata; after 7 days; dose 1 ml/gm/lit
Spodoptera litura [9] = settings: Spodoptera litura on castor leaves; dose 1 ml/gm/lit.; 10 insects/treatment; 72 hrs after application
chili seedlings = experiment: Response of chili plants, greenhouse growth (Ex. 31); type: in vivo; settings: chili seedlings, dose 1 ml/gm/lit
Mealy Bug [10] = settings: Mealy Bug on cotton leaves, dose 1 ml/gm/lit., 48 Hrs.
Thrips [11] = settings: Thrips on cotton leaves; dose 1 ml/gm/lit.; 10 insects/treatment; 48 hrs after application
Mealy Bug [12] = settings: mealy bug on cotton plants, green house, dose 1 ml/gm/lit. spray
Aphid [13] = settings: Aphids on cotton plants, green house; dose 1 ml/gm/lit.; 10 insects/plant, 10 plants/treatment; 48 hrs
Aphid [14] = experiment: whole plant or invertebrate; settings: 48 h
Mite [15] = settings: mite on okra plants, green house, dose 1 ml/gm/lit. spray
tomato seedlings = experiment: Response of tomato plants, greenhouse growth (Ex. 30); type: in vivo; settings: tomato seedlings, dose 1 ml/gm/lit
Spodoptera litura [16] = experiment: whole plant or invertebrate; settings: 72 h
Helicoverpa armigera [17] = settings: Helicoverpa armigera 3rd instar on chickpea plants, dose 1 ml/gm/lit. spray
Thrips [18] = settings: thrips on cotton plants, greenhouse, dose 1 ml/gm/lit. spray
[19] = 72 hrs, corrected for water control
[20] = read-out: % Corrected Mortality at 48 Hrs.
[21] = read-out: % Mortality at 48 Hrs.
[22] = 10 insects/treatment, 4 replications
[23] = 48 hrs, corrected for water control

Cc1ccc(C(C)C)cc1O [Carvacrol]
Acaricidal Activity - Mode of action [1]: Has acaricidal activities | Antifungal Activity - Mode of action [1]: Antifungal activities | Antioxidant Activity - Mode of action [1]: Antioxidant activities | Bactericidal Activity - Mode of action [1]: Exhibits antibacterial | Insecticidal Activities - Mode of action [1]: Insecticidal toxicities | Nematicidal Activity - Mode of action [1]: Effective against plant | Total No. of dead insect at 48 Hrs. (Mite [2]; 10 insects/treatment, 4 replications, okra leaves): 4.25 | % Corrected Mortality at 48 Hrs. (Mite [2]; 48 hrs): 37.84% | % Mortality at 48 Hrs. (Mite [2]; 48 hrs): 42.50% | Mean colony Diameter (mm) (Alternaria alternata [3]): 52.50 mm | inhibition of growth at 1 mL or g/L (Alternaria alternata [3]; vs untreated control, read-out: % Inhibition of growth): 40.3% | % Mortality at 72 Hrs. (Spodoptera litura [4]; 72 hrs after application): 47.50% | % Corrected Mortality at 72 Hrs. (Spodoptera litura [4]; [19]): 44.74% | mortality at 1 mL or g/L (Thrips [5]; [20]): 25.7% | mortality at 1 mL or g/L (Thrips [5]; [21]): 35% | Total No. of dead insect at 48 Hrs. (Aphid [6]; 10 insects/treatment, 4 replications, cotton leaves): 7.00 | % Corrected Mortality at 48 Hrs. (Aphid [6]; 48 hrs): 65.71% | % Mortality at 48 Hrs. (Aphid [6]; 48 hrs): 70.00% | Total No. of dead insect at 72 Hrs. (Helicoverpa armigera [7]; [22]): 5.50 | % Mortality at 72 Hrs. (Helicoverpa armigera [7]): 55.00% | % Corrected Mortality at 72 Hrs. (Helicoverpa armigera [7]; corrected for water control): 55.00% | % Disease reduction over Control (Alternaria alternata [8]): 47.93% | Total No. of dead insect at 72 Hrs. (Spodoptera litura [9]): 4.50 | CCI 5th Day (chili seedlings; 5th day after application): 14.95 | Plant Height (cm) 5th Day (chili seedlings; 5th day after application): 6.33 cm | CCI % Increase over pre on 10th Day (chili seedlings; 10th day): 64.84% | Plant Height % Increase over pre on 10th Day (chili seedlings; 10th day): 65.77% | Root Lenght (cm) 10th Day (chili seedlings; 10th day): 3.97 cm | Stem Girth % Increase over pre on 10th Day (chili seedlings; 10th day): 49.25% | CCI 10th Day (chili seedlings; 10th day after application): 15 | Plant Height (cm) 10th Day (chili seedlings; 10th day after application): 7.57 cm | Root Lenght % Increase over control (chili seedlings; 10th day, vs water control): 44.94% | Total No. of dead insect at 48 Hrs. (Mealy Bug [10]; [22]): 6.75 | % Mortality at 48 Hrs. (Mealy Bug [10]): 67.50% | % Corrected Mortality at 48 Hrs. (Mealy Bug [10]; corrected for water control): 65.79% | Total No. of dead insect at 48 Hrs. (Thrips [11]): 3.50 | % Mortality at 48 Hrs. (Mealy Bug [12]; 48 hrs after application): 65.00% | Total No. of dead insect at 48 Hrs. (Mealy Bug [12]; 48 hrs after application): 65.00 | % Corrected Mortality at 48 Hrs. (Mealy Bug [12]; [23]): 61.11% | Total No. of dead insect at 48 Hrs. (Aphid [13]): 72.50 | mortality at 1 mL or g/L (Aphid [14]; [20]): 67.7% | mortality at 1 mL or g/L (Aphid [14]; [21]): 72.5% | % Mortality at 48 Hrs. (Mite [15]; 48 hrs after application): 47.50% | Total No. of dead insect at 48 Hrs. (Mite [15]; 48 hrs after application): 47.50 | % Corrected Mortality at 48 Hrs. (Mite [15]; [23]): 44.74% | Plant Height 5th Day (tomato seedlings; 5th day after application): 6.38 cm | Stem Girth 5th Day (tomato seedlings; 5th day after application): 2.05 mm | Plant Height 10th Day (tomato seedlings; 10th day after application): 7.23 cm | Stem Girth 10th Day (tomato seedlings; 10th day after application): 2.35 mm | Plant Height % Increase over pre on 10th Day (tomato seedlings; 10th day): 32.66% | Stem Girth % Increase over pre on 10th Day (tomato seedlings; 10th day): 63.42% | CCI 5th Day (tomato seedlings; 5th day after application): 13.62 | CCI % Increase over pre on 10th Day (tomato seedlings; 10th day): 33.70% | Root Length (cm) 10th Day (tomato seedlings; 10th day): 4.25 cm | CCI 10th Day (tomato seedlings; 10th day after application): 15.87 | Root Length % Increase over control (tomato seedlings; 10th day, vs water control): 27.69% | mortality at 1 mL or g/L (Spodoptera litura [16]; read-out: % Corrected Mortality at 72 Hrs.): 42.1% | mortality at 1 mL or g/L (Spodoptera litura [16]; read-out: % Mortality at 72 Hrs.): 45% | % Mortality at 72 Hrs. (Helicoverpa armigera [17]; 72 hrs after application): 52.50% | % Corrected Mortality at 72 Hrs. (Helicoverpa armigera [17]; [19]): 52.50% | % Mortality at 48 Hrs. (Thrips [18]; 48 hrs after application): 32.50% | Total No. of dead insect at 48 Hrs. (Thrips [18]; 48 hrs after application): 32.50 | % Corrected Mortality at 48 Hrs. (Thrips [18]; [23]): 25.00%

— patent publication US20250351832A1, “PHYTOCHEMICALS AS BIOPESTICIDES AND BIOSTIMULANTS” (KAY BEE BIO ORGANICS PVT. LTD., priority 2024, published 2025)
